Measured values published in patent publication US20040127492A1 (Pharmacia Corporation, priority 2002, published 2004).
Read-outs that look alike come from different tables or passages of the source.

Target: MAPKAPK2 (MK-2) (Homo sapiens, UniProt P49137)
Experiment: Determination of MK-2 IC50 (HSP-peptide phosphorylation, anion exchange resin capture assay)
Type: biochemical
Description: Determination of MK-2 IC50:
Recombinant MAPKAPK2 was phosphorylated at a concentration of 42-78 μM by incubation with 0.23 μM of active p38α in 50 mM HEPES, 0.1 mM EDTA, 10 mM magnesium acetate, and 0.25 mM ATP, pH 7.5 for one hour at 30° C.
The phosphorylation of HSP-peptide ([…]) by MAPKAPK2 was measured using an anion exchange resin capture assay method. The reaction was carried out in 50 mM β-glycerolphosphate, 0.04% BSA, 10 mM magnesium acetate, 2% DMSO and 0.8 mM dithiotheritol, pH 7.5 in the presence of the HSP-peptide with 0.2 μCi [γ^33P]ATP and 0.03 mM ATP. The reaction was initiated by the addition of 15 nM MAPKAPK2 and was allowed to incubate at 30° C. for 30 min. The reaction was terminated and [γ^33P]ATP was removed from solution by the addition of 150 μl of AG 1×8 ion exchange resin in 900 mM sodium formate pH 3.0. A 50 μl aliquot of head volume was removed from the quenched reaction mixture and added to a 96-well plate, 150 μl of Microscint-40 (Packard) was added and the amount of phosphorylated-peptide was determined. Allow the Microscint to sit in the plates for 60 minutes prior to counting.
Compounds are evaluated as potential inhibitors of the MK-2 kinase by measuring their effects on MK-2 phosphorylation of the peptide substrate. Compounds may be screened initially at two concentrations prior to determination of IC50 values. Screening results are expressed as percent inhibition at the concentrations of compound tested. For IC50 value determinations, Compounds are tested at six concentrations in ten-fold serial dilutions with each concentration tested in triplicate. Results are expressed as IC50 values in micromolar. The assay is performed at a final concentration of 2% DMSO.

[1] = Table 5, other cyclic pyrazole MK-2 inhibiting compounds, read-out: MK-2 Avg. IC50
[2] = Table 4, pyrimidylpyrazole MK-2 inhibitors, read-out: MK-2 Avg. IC50
[3] = Table 2, pyrazolylpyrazole MK-2 inhibitors, read-out: MK-2 Avg. IC50
[4] = Table 1, phenoxypyrazole MK-2 inhibitors, read-out: MK-2 Avg, IC50

Chain of MAPKAPK2 (MK-2) (P49137 whole entry, species assumed): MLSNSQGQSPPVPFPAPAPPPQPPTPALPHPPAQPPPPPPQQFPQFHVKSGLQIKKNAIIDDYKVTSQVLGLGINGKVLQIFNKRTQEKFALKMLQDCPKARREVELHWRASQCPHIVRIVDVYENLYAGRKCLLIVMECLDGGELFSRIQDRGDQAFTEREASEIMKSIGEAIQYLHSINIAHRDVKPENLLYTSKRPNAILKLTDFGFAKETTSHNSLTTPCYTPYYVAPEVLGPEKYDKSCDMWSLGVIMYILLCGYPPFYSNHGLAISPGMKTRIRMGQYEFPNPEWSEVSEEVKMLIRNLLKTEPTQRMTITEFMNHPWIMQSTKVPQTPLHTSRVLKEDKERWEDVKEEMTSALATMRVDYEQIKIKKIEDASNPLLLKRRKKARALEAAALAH

Compound | IC50 (read-out: MK-2 Avg. IC50) | other results
O=C1NCCn2nc3c(c21)CCc1cnc(/C=C/c2ccccc2)cc1-3 [Example 2] | – | IC50 [1]: 0.147 µM
O=C1NCCn2nc3c(c21)CCc1cnc(/C=C/c2ccc(O)cc2)cc1-3 [Example 3] | – | IC50 [1]: 0.164 µM
O=C1NCCCn2nc3c(c21)CCc1cnc(-c2cnc4ccccc4c2)nc1-3 [Example 4] | – | IC50 [2]: 1.47 µM
O=C1NCCCn2nc3c(c21)CCc1cnc(-c2ccc4c(c2)OCO4)nc1-3 [Example 7] | – | IC50 [2]: 3.14 µM
COc1ccc(-c2ncc3c(n2)-c2nn4c(c2CC3)C(=O)NCCC4)cc1 [Example 8] | – | IC50 [2]: 4.52 µM
O=C1NCCCn2nc3c(c21)CCc1cnc(-c2ccncc2)nc1-3 [Example 9] | – | IC50 [2]: 8.62 µM
O=C(O)c1c2c(nn1CCCNC(c1ccccc1)(c1ccccc1)c1ccccc1)-c1nc(-c3ccccc3)ncc1CC2 [Example 10] | – | IC50 [2]: 52.2 µM
O=C1NCCCn2nc3c(c21)CCc1cnc(-c2ccccc2)nc1-3 [Example 11] | – | IC50 [2]: 81.4 µM
COC(=O)c1c2c(nn1CCCN)-c1nc(-c3ccncc3)ncc1CC2 [Example 12] | – | IC50 [2]: 142 µM
CSc1n[nH]c2c1-c1n[nH]c(C(N)=O)c1CC2 [Example 18] | – | IC50 [3]: 30.3 µM
O=C1NCCCn2nc3c(c21)CCc1cc(O)ccc1-3 [Example 18] | – | IC50 [4]: 17 µM
CCCn1nc2c(c1C(=O)O)CCc1cnc(-c3cnc4ccccc4c3)cc1-2 [Example 20] | 0.0914 µM | –
CC(C)Cc1cc2c(cc1O)CCc1c-2nn(CCCN)c1C(=O)O [Example 25] | – | IC50 [4]: 20.8 µM
NC(=O)c1[nH]nc2c1CCc1[nH]nc(SCc3ccccc3)c1-2 [Example 25] | – | IC50 [3]: 80.7 µM
NCCCn1nc(C(N)=O)c2c1-c1cn[nH]c1CC2 [Example 28] | – | IC50 [3]: 104 µM
NCCCn1nc2c(c1C(=O)O)CCc1cc(O)c(Cc3ccccc3)cc1-2 [Example 29] | – | IC50 [4]: 29.6 µM
CCC(C)Nc1cc2c(cc1O)CCc1c-2nn(CCCN)c1C(=O)O (centres unmarked) [Example 35] | – | IC50 [4]: 45.9 µM
NCCCn1nc2c(c1C(=O)O)CCc1c-2cc(-c2cccc([N+](=O)[O-])c2)c(O)c1Cl [Example 43] | – | IC50 [4]: 74.3 µM
COC(=O)c1[nH]nc2c1CCc1cc(O)c(S(=O)(=O)N(C)C)cc1-2 [Example 47] | – | IC50 [4]: 92.8 µM
COc1cc2c(cc1-c1cccc(Cl)c1)-c1nn(CCCNC(=O)OC(C)(C)C)c(C(=O)O)c1CC2 [Example 50] | – | IC50 [4]: 104 µM
O=C1NCCCn2nc3c(c21)CCc1cnc(-c2cccc([N+](=O)[O-])c2)cc1-3 [Example 50] | 0.453 µM | –
Nc1cccc(-c2cc3c(cc2O)CCc2c-3nn3c2C(=O)NCCC3)c1 [Example 51] | – | IC50 [4]: 105 µM

Compound | IC50 (read-out: MK-2 Avg. IC50) | other results
NC(=O)CCn1nc(C(N)=O)c2c1-c1cn[nH]c1CC2 [Example 56] | – | IC50 [3]: ≥ 200 µM
NC(=O)Cn1nc(C(N)=O)c2c1-c1cn[nH]c1CC2 [Example 57] | – | IC50 [3]: ≥ 200 µM
CS(=O)(=O)c1n[nH]c2c1-c1n[nH]c(C(N)=O)c1CC2 [Example 58] | – | IC50 [3]: ≥ 200 µM
O=C(O)c1[nH]nc2c1CCc1[nH]nc(SCc3ccccc3)c1-2 [Example 60] | – | IC50 [3]: ≥ 200 µM
CCOC(=O)c1[nH]nc2c1CCc1[nH]nc(SCc3ccccc3)c1-2 [Example 61] | – | IC50 [3]: ≥ 200 µM
COc1ccc(-c2cc3c(cn2)CCc2c-3nn3c2C(=O)NCC3)cc1 [Example 62] | 0.587 µM | –
C[S+]([O-])c1n[nH]c2c1-c1n[nH]c(C(=O)O)c1CC2 (centres unmarked) [Example 62] | – | IC50 [3]: ≥ 200 µM
CCOC(=O)c1[nH]nc2c1CCc1[nH]nc([S+](C)[O-])c1-2 (centres unmarked) [Example 63] | – | IC50 [3]: ≥ 200 µM
COc1cc2c(cc1Cc1ccccc1)-c1nn(CCCNC(=O)OC(C)(C)C)c(C(=O)O)c1CC2 [Example 63] | – | IC50 [4]: 154 µM
CSc1n[nH]c2c1-c1n[nH]c(C(=O)O)c1CC2 [Example 64] | – | IC50 [3]: ≥ 200 µM
CCOC(=O)c1[nH]nc2c1CCc1[nH]nc(SC)c1-2 [Example 65] | – | IC50 [3]: ≥ 200 µM
O=C(O)c1[nH]nc2c1CCc1cc(O)c(Br)cc1-2 [Example 66] | – | IC50 [4]: 163 µM
CCC(C)Nc1cc2c(cc1OC)CCc1c-2nn(CCCN)c1C(=O)O (centres unmarked) [Example 74] | – | IC50 [4]: 196 µM
COC(=O)c1[nH]nc2c1C(C)Cc1cc(OC)ccc1-2 (centres unmarked) [Example 100] | – | IC50 [4]: > 200 µM
COC(=O)c1c2c(nn1CCCNC(=O)OC(C)(C)C)-c1cc(-c3cccc(Cl)c3)c(OC)cc1CC2 [Example 131] | – | IC50 [4]: > 200 µM
O=C(O)c1c2c(nn1CCCNCc1cnc[nH]1)-c1ccncc1CC2 [Example 160] | 10.1 µM | –
O=C(O)c1c2c(nn1CCCNCc1cccc(Cl)c1)-c1ccncc1CC2 [Example 161] | 10.3 µM | –
O=C(NCCCn1nc2c(c1C(=O)O)CCc1cnccc1-2)c1cccnc1 [Example 162] | 10.4 µM | –
NC(=O)c1[nH]nc2c1CCc1cnccc1-2 [Example 163] | 10.4 µM | –
O=C(O)c1c2c(nn1CCCNC1CCCC1)-c1ccncc1CC2 [Example 164] | 10.4 µM | –
O=C1NC(C(O)CO)Cn2nc3c(c21)CCc1cnccc1-3 (centres unmarked) [Example 167] | 11.8 µM | –
CCOC(=O)c1c2c(nn1CCN)-c1ccncc1CC2 [Example 169] | 12.3 µM | –

Compound | IC50 (read-out: MK-2 Avg. IC50) | other results
O=C(O)c1c2c(nn1CCO)-c1ccncc1CC2 [Example 173] | 14.3 µM | –
O=C1NCCn2nc3c(c21)CCc1cnc(N2CCc4ccccc4C2)cc1-3 [Example 175] | 15 µM | –
O=C(NCCCn1nc2c(c1C(=O)O)CCc1cnccc1-2)NCc1ccccc1 [Example 176] | 15.4 µM | –
CN(C)CCCn1nc2c(c1C(=O)O)CCc1cnccc1-2 [Example 177] | 15.5 µM | –
NCCCn1nc2c(c1C(=O)O)CCc1c-2ccnc1Cl [Example 179] | 16.5 µM | –
O=C(CO)NCCn1nc2c(c1C(=O)O)CCc1cnccc1-2 [Example 181] | 17.4 µM | –
CC(C)NCCn1nc2c(c1C(=O)O)CCc1cnccc1-2 [Example 182] | 17.7 µM | –
N#CCCCn1nc2c(c1C(=O)O)CCc1cnccc1-2 [Example 183] | 17.9 µM | –
NCC1Cn2nc3c(c2C(=O)O1)CCc1cnccc1-3 (centres unmarked) [Example 185] | 19.4 µM | –
Cc1nccc2c1CCc1c-2nn2c1C(=O)NCCC2 [Example 186] | 20 µM | –
CCCn1nc2c(c1C(=O)O)CCc1cnccc1-2 [Example 187] | 20.1 µM | –
O=C1NCCn2nc3c(c21)CCc1cnc(N2CCCC2)cc1-3 [Example 189] | 21.6 µM | –
NC(CCn1nc2c(c1C(=O)O)CCc1cnccc1-2)C(=O)O (centres unmarked) [Example 191] | 25 µM | –
O=C1NC(CNCc2ccc(Cl)cc2)Cn2nc3c(c21)CCc1cnccc1-3 (centres unmarked) [Example 193] | 27.3 µM | –
O=C1NCCn2nc3c(c21)CCc1c-3ccnc1Cl [Example 194] | 27.7 µM | –
NC(=O)C1Cn2nc3c(c2C(=O)N1)CCc1cnc(-c2cnc4ccccc4c2)cc1-3 (centres unmarked) [Example 195] | 27.9 µM | –
CCC(CC)CNCCCCn1nc2c(c1C(=O)O)CCc1cnccc1-2 [Example 197] | 29.4 µM | –
CC(C)S(=O)(=O)NCCCn1nc2c(c1C(=O)O)CCc1cnccc1-2 [Example 200] | 33.3 µM | –
NCCCn1nc2c(c1CCl)CCc1cnccc1-2 [Example 201] | 33.5 µM | –
CC(C)(C)CCc1cc2c(cn1)CCc1c-2nn2c1C(=O)NCC2 [Example 202] | 35.6 µM | –

Now from value to compound, other results behind:

IC50 (read-out: MK-2 Avg. IC50) | Compound | other results
0.322 µM | COc1cccc(-c2cc3c(cn2)CCc2c-3nn3c2C(=O)NCC3)c1 [Example 45] | –
10.7 µM | O=C(O)c1c2c(nn1CCCNCCc1c[nH]c3ccccc13)-c1ccncc1CC2 [Example 165] | –
11 µM | NCCCC1CNC(=O)c2c3c(nn21)-c1ccncc1CC3 (centres unmarked) [Example 166] | –
11.9 µM | O=C1NCCn2nc3c(c21)CCc1cnc(N2CCOCC2)cc1-3 [Example 168] | –
12.6 µM | C=CCn1nc2c(c1C(=O)O)CCc1cnccc1-2 [Example 170] | –
14 µM | O=C(O)c1c2c(nn1CC(O)CNC1Cc3ccccc3C1)-c1ccncc1CC2 (centres unmarked) [Example 172] | –
14.6 µM | O=C(O)c1c2c(nn1CCCNCCN1CCCC1)-c1ccncc1CC2 [Example 174] | –
16.5 µM | COC(=O)C1Cn2nc3c(c2C(=O)N1)CCc1cnccc1-3 (centres unmarked) [Example 180] | –
17.9 µM | N#Cc1cccc(NC(=O)NCCCn2nc3c(c2C(=O)O)CCc2cnccc2-3)c1 [Example 184] | –
21.5 µM | O=C(O)c1c2c(nn1CCCBr)-c1ccncc1CC2 [Example 188] | –
21.9 µM | CC(C)NCCCn1nc2c(c1C(=O)O)CCc1cnccc1-2 [Example 190] | –
25.3 µM | NC(=O)NCCCn1nc2c(c1C(=O)O)CCc1cnccc1-2 [Example 192] | –
28.2 µM | CS(=O)(=O)NCCCn1nc2c(c1C(=O)O)CCc1cnccc1-2 [Example 196] | –
30.1 µM | COc1ccc(CC(=O)NCCCn2nc3c(c2C(=O)O)CCc2cnccc2-3)cc1 [Example 198] | –
33.3 µM | N#CC1CCn2nc3c(c2C(=O)N1)CCc1cnccc1-3 (centres unmarked) [Example 199] | –
36 µM | CCOC(=O)c1c2c(nn1CCN)-c1cc(Cl)ncc1CC2 [Example 204] | –
